Assay [1] relates to rituximab. To be noted: forward and reverse sequences; not bound by other anti-CD20 mAbs; cited from earlier work. The text has this:
The peptide […] from the resem ...

For assay [2], the system named is rituximab (RTX). As to the kind of experiment: First screen of the resemblance-ranking peptide library with RTX, fluorescent immunostaining. The assay is classed as binding. To be noted: RTX 30 µg/mL; among 160,000 peptides.
Experimental: Peptide microarrays: A peptide library of 160,000, peptides as well other peptide microarrays for the substitutions and the KD analysis, were fabricated via the ultra-high-density peptide microarray technology of AXXELERA (Karlsruhe, Germany) [49]. The AXXELERA technology allows for the 30 µm-sized square peptide spots with a pitch of 60 µm that corresponds to ca. 28,000 spots/cm^2.
Immunostaining: Peptide microarrays were incubated with the monoclonal anti-CD20 antibody rituximab (Sigma-Aldrich, Steinheim, Germany) with concentrations depending on the type of experiment, diluted in PBS-T (Phosphate Buffered Saline with Tween) overnight at 4 °C. A rituximab concentration of 30 µg/mL was used for the first screen of the entire resemblance-ranking peptide library. Then, the peptide chips were stained with the fluorescently labeled secondary anti-human-IgG antibodies (Jackson ImmunoResearch, Philadelphia, PA, USA). The signals from the spots were read out with the confocal scanner Innoscan 1100 AL. The scans were performed in the red channel (635 nm), with a resolution of 2 µm/pixel, a speed of 35 µm/s, and a PMT gain of 9.

Turning to WPKWLE, in assay [1], the binding to rituximab entry is recorded as “bind rituximab”.
On to LWKPWLQPCC, for which the “ratio to the maximum signal value” in assay [2] turned out to be 0.13.
With ELWKPW, the binding to rituximab result in assay [1] is “bind rituximab”.
